Reference: ChEMBL document CHEMBL4834393, “Building a Chemical Toolbox for Human Pregnane X Receptor Research: Discovery of Agonists, Inverse Agonists, and Antagonists Among Analogs Based on the Unique Chemical Scaffold of SPA70” (J Med Chem, 2021)
Active and inactive are the calls of the source. The rule behind the calls is not given here.

Experiments:
[1] = molecular target: T1, Nuclear receptor subfamily 1 group I member 2 (Homo sapiens, UniProt O75469); test: Displacement of BODIPY FL vindoline from GST-tagged human PXR LBD incubated for 60 mins by TR-FRET assay
T1 sequence (O75469 whole entry): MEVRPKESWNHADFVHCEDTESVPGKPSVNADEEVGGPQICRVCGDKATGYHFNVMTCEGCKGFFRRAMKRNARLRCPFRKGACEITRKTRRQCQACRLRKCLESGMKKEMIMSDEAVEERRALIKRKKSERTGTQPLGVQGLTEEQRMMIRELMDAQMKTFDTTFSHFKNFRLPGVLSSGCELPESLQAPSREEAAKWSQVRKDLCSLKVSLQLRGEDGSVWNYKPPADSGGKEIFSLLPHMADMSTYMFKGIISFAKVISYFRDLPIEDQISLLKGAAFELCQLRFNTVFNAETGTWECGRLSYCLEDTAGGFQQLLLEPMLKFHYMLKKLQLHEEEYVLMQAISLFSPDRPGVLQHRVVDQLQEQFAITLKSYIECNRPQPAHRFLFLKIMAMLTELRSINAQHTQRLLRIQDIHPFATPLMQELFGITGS

[2] = molecular target: T2, PXR (NR1I2) (Homo sapiens, UniProt O75469); test: Inhibition of human PXR expressed in HepG2 cells co-expressing luciferase gene under control of CYP3A4 promoter at 10 uM incubated for 24 hrs in presence of 5 uM rifampicin by luciferase reporter assay relative to control; assay type: cell-based
T2 sequence (O75469 whole entry): T1 sequence (O75469 whole entry)

[3] = molecular target: T2, PXR (NR1I2); test: Agonist activity at human PXR expressed in HepG2 cells co-expressing luciferase gene under control of CYP3A4 promoter at 10 uM incubated for 24 hrs by luciferase reporter assay relative to control
[4] = molecular target: T1, Nuclear receptor subfamily 1 group I member 2; test: Antagonist activity at human PXR expressed in HepG2 cells co-expressing luciferase gene under control of CYP3A4 promoter incubated for 24 hrs in presence of 5 uM rifampicin by luciferase reporter assay
[5] = molecular target: T1, Nuclear receptor subfamily 1 group I member 2; test: Agonist activity at human PXR expressed in HepG2 cells co-expressing luciferase gene under control of CYP3A4 promoter incubated for 24 hrs by luciferase reporter assay
[6] = molecular target: T2, PXR (NR1I2); test: Displacement of BODIPY FL vindoline from GST-tagged human PXR LBD at 10 uM incubated for 60 mins by TR-FRET assay relative to control; conditions: GST-tagged human PXR LBD (recombinant protein), probe BODIPY FL vindoline
[7] = system: HepG2; test: Cytotoxicity against human HepG2 cells co-expressing luciferase gene under control of CYP3A4 promoter measured after 24 hrs by CellTiter-Glo luminescent cell viability assay; assay type: ADME, cell-based; conditions: human, hepg2, 24 h; time 24 hrs
[8] = molecular target: T3, Nuclear receptor subfamily 1 group I member 2 (Mus musculus, UniProt O54915); test: Agonist activity at mouse PXR by luciferase reporter assay; assay type: ADME
T3 sequence (O54915 whole entry): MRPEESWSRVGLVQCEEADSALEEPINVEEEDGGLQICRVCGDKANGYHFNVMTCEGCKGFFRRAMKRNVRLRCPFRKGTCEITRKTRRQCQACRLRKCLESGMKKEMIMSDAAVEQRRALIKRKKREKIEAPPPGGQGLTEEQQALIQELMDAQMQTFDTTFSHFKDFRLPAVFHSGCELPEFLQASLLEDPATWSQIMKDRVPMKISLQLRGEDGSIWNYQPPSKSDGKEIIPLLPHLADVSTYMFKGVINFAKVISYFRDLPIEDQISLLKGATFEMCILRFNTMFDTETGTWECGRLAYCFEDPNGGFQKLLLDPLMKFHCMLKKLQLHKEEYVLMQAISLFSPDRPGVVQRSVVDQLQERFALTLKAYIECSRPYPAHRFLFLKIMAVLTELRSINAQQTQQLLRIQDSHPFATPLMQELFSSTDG

[9] = system: constitutive androstane receptor, NR1I3 (Homo sapiens); test: Agonist activity at human CAR by luciferase reporter assay
[10] = molecular target: T3, Nuclear receptor subfamily 1 group I member 2; test: Antagonist activity at mouse PXR in presence of PCN by luciferase reporter assay

Compound | IC50 [1] [nM] | inhibition at 24 h, 10 µM [2] [%] | activity at 24 h, 10 µM [3] [%] | IC50 [4] [nM] | EC50 [5] [nM] | inhibition at 1 h, 10 µM [6] [%] | Activity [8] | Activity [9] | Activity [10] | Activity [7]
COc1cc(C#N)c(C)cc1-n1nnc(S(=O)(=O)c2ccc(C(C)(C)C)cc2)c1C | 1070 | 33 | 58 | 4000 | 1600 | 48 |  |  |  | 
COc1ccc(C)cc1-n1nnc(S(=O)(=O)c2ccc(C(C)(C)C)cc2)c1N | 280 | 46 | 73 | 3300 | 160 | 88 |  |  |  | 
CCc1c(S(=O)(=O)c2ccc(C(C)(C)C)cc2)nnn1-c1cc(OC)ccc1OC |  |  |  |  |  |  | Not Active | inactive | Not Active | Non-Toxic
COC(=O)c1cc(OC)c(-n2nnc(S(=O)(=O)c3ccc(C(C)(C)C)cc3)c2C)cc1Cl | 700 | 51 | 62 | 10000 | 1900 | 35 |  |  |  | 

Continued, in another order:

IC50 [1] [nM] | inhibition at 24 h, 10 µM [2] [%] | activity at 24 h, 10 µM [3] [%] | IC50 [4] [nM] | EC50 [5] [nM] | inhibition at 1 h, 10 µM [6] [%] | Activity [8] | Activity [9] | Activity [10] | Compound | Activity [7]
1400 | 64 | 82 | 2000 | 810 | 95 |  |  |  | COc1ccc(CO)cc1-n1nnc(S(=O)(=O)c2ccc(C(C)(C)C)cc2)c1C | 
530 | 53 | 56 | 1000 | 800 | 103 |  |  |  | COc1ccccc1-n1nnc(S(=O)(=O)c2ccc(C(C)(C)C)cc2)c1C | 
600 | 44 | 49 | 3400 | 1000 | 40 |  |  |  | COc1cc(C#N)c(Cl)cc1-n1nnc(S(=O)(=O)c2ccc(C(C)(C)C)cc2)c1C | 
180 | 52 | 53 | 1700 | 430 | 85 |  |  |  | COc1ccc(OC)c(-n2nnc(S(=O)(=O)c3ccc(C(C)(C)C)cc3)c2N)c1 | 
4000 | 72 | 24 | 2000 | 1000 | 87 |  |  |  | COc1cc(-n2nnc(S(=O)(=O)c3ccc(C(C)(C)C)cc3)c2C)c(OC)cc1F | 
